This is an account of results in ChEMBL document CHEMBL1201862, “PubChem BioAssay data set” (2004).

Calls of active or inactive are those of the source.

Data set [1] deals with T1, Short transient receptor potential channel 4 (Mus musculus, UniProt Q9QUQ5).
T1 sequence (Q9QUQ5 whole entry): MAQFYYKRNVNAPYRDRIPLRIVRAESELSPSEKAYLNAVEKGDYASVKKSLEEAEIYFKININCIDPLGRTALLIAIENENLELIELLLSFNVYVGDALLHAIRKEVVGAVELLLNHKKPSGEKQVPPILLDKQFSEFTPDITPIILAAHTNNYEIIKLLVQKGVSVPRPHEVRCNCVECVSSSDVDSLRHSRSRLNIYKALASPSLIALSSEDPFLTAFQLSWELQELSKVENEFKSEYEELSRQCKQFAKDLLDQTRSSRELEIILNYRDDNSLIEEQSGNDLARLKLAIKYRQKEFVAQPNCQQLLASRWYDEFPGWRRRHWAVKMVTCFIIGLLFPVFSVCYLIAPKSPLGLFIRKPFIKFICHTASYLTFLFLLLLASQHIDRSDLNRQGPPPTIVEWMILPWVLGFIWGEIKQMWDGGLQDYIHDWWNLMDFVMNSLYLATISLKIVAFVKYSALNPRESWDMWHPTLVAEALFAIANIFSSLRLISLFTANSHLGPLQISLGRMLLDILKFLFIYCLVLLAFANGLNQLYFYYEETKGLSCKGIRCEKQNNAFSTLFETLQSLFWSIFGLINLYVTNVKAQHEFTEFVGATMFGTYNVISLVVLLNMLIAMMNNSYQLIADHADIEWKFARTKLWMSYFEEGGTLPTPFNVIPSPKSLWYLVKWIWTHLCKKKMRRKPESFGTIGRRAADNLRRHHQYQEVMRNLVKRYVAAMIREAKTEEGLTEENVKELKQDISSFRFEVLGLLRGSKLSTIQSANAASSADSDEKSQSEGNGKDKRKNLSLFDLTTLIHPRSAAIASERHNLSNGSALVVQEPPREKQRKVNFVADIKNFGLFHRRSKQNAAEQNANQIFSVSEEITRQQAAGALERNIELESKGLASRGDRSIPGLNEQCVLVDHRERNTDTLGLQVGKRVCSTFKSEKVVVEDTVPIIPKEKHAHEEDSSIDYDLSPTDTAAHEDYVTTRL
Nature of the data set: mouse TRPC4 channel activators, dose response, cell-based, HEK293 TRPC4/mu-opioid, Fluo-4 calcium (AID 434937). The class given is functional.

In data set [2] the target is Cytochrome P450 2C9 (Homo sapiens, UniProt P11712).
Data set [3] addresses Peroxisome proliferator-activated receptor gamma/Nuclear receptor coactivator 1 (Homo sapiens, UniProt P37231). The class given is functional.
Data set [4] addresses Trypsin (Sus scrofa, UniProt P00761). Nature of the data set: porcine trypsin inhibitors, dose response, selectivity assay for Rce1 protease inhibitor project, biochemical, quenched peptide fluorescence, cherry-pick (AID 488789).
Data set [5] concerns the target Peroxisome proliferator-activated receptor gamma/Nuclear receptor coactivator 2 (Homo sapiens, UniProt P37231). The class given is functional.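 Further: agonist potency for raising coactivator recruitment to the receptor.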
In data set [6] the target is Cytochrome P450 3A4 (Homo sapiens, UniProt P08684).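 Further: CYP3A4 tested as one member of a cytochrome P450 panel screen.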
The target of data set [7] is Peroxisome proliferator-activated receptor gamma/Nuclear receptor coactivator 3 (Homo sapiens, UniProt P37231). The class given is functional.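 Further: agonist potency for raising coactivator recruitment to the receptor.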
The nature of data set [8]: cytotoxicity in HEK-293T cells, dose response, cytotoxicity control for TCR NF-kB inhibitor project, luminescence, T-cell screen hits (AID 489026).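 Further: cells exposed to compound about 14 hours before the viability readout.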 The class given is functional, cell-based.
A short description of data set [9]: cells. The class given is functional.
Data set [10] in a line: THP-1 cell cytotoxicity, dose response, cytotoxicity control for non-replicating M. tuberculosis project (AID 489025). The class given is functional.
Data set [11] can be described thus: Vero E6 cell cytotoxicity, dose response, cytotoxicity control for non-replicating M. tuberculosis project, secondary assay (AID 492998). The class given is functional, VeroE6. The following applies: Vero C1008.
The nature of data set [12]: cytotoxicity toward NIH3T3 fibroblasts, dose response, counter-screen, cell-based, ATP luminescence, mouse fibroblasts (AID 2010).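 Further: cells exposed to compound for about 90 hours before reading.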 The class given is functional. For orientation: Counterscreens check selectivity or assay interference.
Data set [13] in a line: inhibitors of intracellular T. cruzi replication, confirmation, NIH3T3 host cells, beta-gal luminescence (AID 2044).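 Further: intracellular parasites grown in NIH/3T3 mouse fibroblasts as host cells; luminescent beta-galactosidase reporter signal from transgenic T. cruzi replicating inside host cells; inhibitors lower the luminescence signal.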 The class given is functional, cell-based.
The target in data set [14] is T2, Microphthalmia-associated transcription factor (Homo sapiens, UniProt O75030).
T2 sequence (O75030 whole entry): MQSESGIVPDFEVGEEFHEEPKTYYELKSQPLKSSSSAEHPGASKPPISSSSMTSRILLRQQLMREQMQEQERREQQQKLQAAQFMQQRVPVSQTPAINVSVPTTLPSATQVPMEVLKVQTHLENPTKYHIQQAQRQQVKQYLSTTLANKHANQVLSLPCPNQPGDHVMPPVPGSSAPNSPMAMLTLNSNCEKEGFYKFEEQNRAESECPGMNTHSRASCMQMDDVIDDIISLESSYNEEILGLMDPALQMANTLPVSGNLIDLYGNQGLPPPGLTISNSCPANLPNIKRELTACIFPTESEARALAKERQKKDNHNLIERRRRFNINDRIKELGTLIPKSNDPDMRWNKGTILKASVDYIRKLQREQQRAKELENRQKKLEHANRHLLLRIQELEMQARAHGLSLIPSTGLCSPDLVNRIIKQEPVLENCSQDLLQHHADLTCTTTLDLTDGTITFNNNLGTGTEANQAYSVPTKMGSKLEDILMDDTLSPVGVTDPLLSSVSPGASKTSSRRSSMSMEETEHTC
Description: TRPM1 promoter luciferase signal decrease, dose response, MITF inhibitor project, cell-based, SK-MEL-5, cherry-picked, set 3 (AID 493073).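 Further: SK-MEL-5 melanoma cells with luciferase driven by the MITF target TRPM1 promoter.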 The class given is functional.

Data set [15] deals with Paired box protein Pax-8 (Homo sapiens, UniProt Q06710). Nature of the data set: inhibitors of PAX8-driven TPO luciferase reporter, dose response, RMG-I cells, cherry-pick (AID 687027).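 Further: luciferase reporter driven by Pax8 target thyroperoxidase promoter measured by SteadyGlo luminescence.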 The class given is functional, cell-based. For orientation: A reporter such as luciferase makes a cellular process visible.
Data set [16] addresses T3, Ubiquitin-conjugating enzyme E2 N (Homo sapiens, UniProt P61088).
T3 sequence (P61088 whole entry): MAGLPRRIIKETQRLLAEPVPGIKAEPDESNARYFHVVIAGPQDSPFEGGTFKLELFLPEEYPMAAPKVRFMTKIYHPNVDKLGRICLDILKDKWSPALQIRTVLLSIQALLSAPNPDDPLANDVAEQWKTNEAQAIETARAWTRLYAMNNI
The class given is functional.

Data set [17] in a line: Luminescence Cell-Based Dose Retest to Confirm Inhibitors of Cancer Stem Cells. [Related pubchem assays (depositor defined):AID2717, AID2721]. The class given is functional. The following applies: Homo sapiens.
The nature of data set [18]: growth suppression of PTEN-null colon cells, dose response, cell-based, HCT116 PTEN knockout (AID 1047).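 Further: HCT116 colon tumor cells with PTEN knocked out; cells exposed to compound for 60 hours before readout; potency for loss of cell viability measured by luminescence.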 The class given is functional.
A short description of data set [19]: growth suppression of beta-catenin-knockout colon cells, dose response, cell-based, HCT116, human colon tumor (AID 1045).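 Further: HCT116 colon tumor cells with beta catenin knocked out; cells exposed to compound for 60 hours.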 The class given is functional.
For data set [20], the system named is INS1. Description: beta cell apoptosis inhibitors, cytokine rescue, dose response, luminescence, retest (AID 449756).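 Further: cell death triggered by IL-1 beta plus TNF-alpha plus IFN-gamma mixture; protective hits raise ATP signal compared with cytokine alone wells.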 The class given is functional, cell-based. Particulars: Rattus norvegicus.

Cytochrome P450 2C9, sequence (P11712 whole entry): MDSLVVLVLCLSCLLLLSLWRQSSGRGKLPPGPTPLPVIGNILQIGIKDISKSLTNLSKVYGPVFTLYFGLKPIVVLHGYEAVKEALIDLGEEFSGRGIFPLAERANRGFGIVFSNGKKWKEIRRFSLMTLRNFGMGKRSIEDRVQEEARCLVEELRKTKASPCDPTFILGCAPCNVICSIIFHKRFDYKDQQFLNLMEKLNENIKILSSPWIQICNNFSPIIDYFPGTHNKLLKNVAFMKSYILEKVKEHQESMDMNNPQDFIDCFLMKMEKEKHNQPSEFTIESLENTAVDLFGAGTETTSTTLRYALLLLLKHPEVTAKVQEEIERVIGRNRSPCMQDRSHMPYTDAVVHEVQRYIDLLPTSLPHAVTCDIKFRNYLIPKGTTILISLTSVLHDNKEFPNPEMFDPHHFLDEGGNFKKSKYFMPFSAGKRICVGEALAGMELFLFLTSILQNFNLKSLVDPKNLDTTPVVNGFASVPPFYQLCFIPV
Peroxisome proliferator-activated receptor gamma/Nuclear receptor coactivator 1, sequence (P37231 whole entry): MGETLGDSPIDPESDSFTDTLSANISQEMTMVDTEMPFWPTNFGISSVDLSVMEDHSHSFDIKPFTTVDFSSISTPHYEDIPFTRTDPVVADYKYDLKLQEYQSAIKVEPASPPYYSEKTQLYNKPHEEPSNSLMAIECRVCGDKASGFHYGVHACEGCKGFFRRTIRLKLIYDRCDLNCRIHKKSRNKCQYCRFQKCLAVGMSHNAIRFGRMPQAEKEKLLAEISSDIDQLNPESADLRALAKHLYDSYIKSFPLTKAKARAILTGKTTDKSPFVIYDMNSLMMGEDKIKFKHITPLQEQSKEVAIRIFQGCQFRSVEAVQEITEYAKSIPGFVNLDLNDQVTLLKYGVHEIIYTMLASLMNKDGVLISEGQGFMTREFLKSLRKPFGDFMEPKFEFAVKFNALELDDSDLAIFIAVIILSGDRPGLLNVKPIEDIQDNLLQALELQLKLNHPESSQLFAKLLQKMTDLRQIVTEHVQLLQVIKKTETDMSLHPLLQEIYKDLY
Peroxisome proliferator-activated receptor gamma/Nuclear receptor coactivator 1, sequence (Q15788 whole entry, further chain): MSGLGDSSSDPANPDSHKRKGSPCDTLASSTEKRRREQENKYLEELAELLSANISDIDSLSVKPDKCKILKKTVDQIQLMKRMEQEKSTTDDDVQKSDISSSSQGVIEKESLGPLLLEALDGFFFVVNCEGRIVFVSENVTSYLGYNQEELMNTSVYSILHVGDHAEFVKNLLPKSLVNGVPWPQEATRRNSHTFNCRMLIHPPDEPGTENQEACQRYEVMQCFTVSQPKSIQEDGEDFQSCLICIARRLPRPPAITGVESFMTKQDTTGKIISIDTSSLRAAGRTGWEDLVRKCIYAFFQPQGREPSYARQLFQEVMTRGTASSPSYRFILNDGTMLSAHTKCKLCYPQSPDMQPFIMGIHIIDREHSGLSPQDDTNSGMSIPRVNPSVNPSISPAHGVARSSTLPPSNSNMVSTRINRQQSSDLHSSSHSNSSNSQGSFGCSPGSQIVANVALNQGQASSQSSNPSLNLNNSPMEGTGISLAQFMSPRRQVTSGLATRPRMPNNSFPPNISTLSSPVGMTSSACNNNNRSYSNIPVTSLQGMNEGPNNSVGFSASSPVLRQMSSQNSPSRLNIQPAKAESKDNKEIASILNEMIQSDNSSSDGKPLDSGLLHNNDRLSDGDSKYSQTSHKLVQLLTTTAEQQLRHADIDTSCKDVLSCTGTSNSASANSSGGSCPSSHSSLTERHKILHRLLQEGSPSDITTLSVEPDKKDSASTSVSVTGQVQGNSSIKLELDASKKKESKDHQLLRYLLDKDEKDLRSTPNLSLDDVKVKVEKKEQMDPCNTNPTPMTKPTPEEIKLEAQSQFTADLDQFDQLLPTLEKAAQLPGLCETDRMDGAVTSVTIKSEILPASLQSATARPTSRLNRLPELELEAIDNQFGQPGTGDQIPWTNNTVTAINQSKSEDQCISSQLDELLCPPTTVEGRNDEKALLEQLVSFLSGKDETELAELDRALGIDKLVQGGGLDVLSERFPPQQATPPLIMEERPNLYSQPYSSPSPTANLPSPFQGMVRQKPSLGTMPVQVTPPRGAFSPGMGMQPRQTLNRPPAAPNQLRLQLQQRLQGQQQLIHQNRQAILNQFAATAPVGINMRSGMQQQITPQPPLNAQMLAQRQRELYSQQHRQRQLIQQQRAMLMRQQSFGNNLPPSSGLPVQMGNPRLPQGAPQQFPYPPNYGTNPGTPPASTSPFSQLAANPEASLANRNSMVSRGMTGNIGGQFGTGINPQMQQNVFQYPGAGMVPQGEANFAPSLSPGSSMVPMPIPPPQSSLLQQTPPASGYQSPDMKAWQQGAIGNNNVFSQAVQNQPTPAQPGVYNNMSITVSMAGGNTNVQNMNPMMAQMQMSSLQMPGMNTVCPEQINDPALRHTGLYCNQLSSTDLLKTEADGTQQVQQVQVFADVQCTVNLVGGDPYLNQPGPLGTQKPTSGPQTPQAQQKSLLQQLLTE
Peroxisome proliferator-activated receptor gamma/Nuclear receptor coactivator 3, sequence (P37231 whole entry): as the sequence (P37231 whole entry) above
Peroxisome proliferator-activated receptor gamma/Nuclear receptor coactivator 3, sequence (Q9Y6Q9 whole entry, further chain): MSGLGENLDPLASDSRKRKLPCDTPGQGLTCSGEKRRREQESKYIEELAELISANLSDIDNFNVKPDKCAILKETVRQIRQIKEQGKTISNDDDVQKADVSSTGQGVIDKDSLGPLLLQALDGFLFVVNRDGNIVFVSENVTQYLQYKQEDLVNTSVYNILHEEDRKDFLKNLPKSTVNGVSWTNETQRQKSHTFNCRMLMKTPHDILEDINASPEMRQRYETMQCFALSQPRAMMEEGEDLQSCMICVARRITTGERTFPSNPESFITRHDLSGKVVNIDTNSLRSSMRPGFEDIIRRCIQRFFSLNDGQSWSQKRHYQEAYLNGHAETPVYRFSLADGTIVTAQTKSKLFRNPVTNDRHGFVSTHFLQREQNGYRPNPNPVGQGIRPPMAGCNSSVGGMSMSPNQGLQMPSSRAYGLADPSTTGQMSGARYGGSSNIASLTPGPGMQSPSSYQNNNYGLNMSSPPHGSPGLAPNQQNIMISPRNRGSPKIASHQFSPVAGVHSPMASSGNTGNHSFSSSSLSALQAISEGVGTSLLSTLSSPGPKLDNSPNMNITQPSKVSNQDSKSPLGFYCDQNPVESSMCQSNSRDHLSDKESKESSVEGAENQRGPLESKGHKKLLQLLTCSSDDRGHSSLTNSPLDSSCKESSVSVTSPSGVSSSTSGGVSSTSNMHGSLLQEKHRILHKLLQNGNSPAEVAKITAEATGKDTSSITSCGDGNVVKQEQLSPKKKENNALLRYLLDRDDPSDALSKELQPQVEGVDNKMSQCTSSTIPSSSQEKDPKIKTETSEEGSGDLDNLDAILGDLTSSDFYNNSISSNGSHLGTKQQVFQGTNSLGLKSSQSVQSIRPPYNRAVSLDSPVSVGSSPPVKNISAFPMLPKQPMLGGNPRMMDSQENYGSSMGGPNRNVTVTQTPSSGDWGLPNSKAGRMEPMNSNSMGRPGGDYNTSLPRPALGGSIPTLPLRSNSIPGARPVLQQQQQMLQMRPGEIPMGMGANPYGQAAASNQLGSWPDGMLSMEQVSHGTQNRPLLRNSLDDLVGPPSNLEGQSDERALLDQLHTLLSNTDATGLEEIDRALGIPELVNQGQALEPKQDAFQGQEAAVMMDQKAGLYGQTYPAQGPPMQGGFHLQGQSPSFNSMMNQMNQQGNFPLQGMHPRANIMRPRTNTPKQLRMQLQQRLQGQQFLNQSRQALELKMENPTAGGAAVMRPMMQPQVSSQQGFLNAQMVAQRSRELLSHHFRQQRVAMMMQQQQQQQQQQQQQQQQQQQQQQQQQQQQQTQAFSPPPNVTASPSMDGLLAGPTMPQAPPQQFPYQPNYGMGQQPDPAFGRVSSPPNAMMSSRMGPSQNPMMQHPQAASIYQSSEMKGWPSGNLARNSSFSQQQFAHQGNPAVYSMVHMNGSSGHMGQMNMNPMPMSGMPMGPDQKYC
Trypsin, sequence (P00761 whole entry): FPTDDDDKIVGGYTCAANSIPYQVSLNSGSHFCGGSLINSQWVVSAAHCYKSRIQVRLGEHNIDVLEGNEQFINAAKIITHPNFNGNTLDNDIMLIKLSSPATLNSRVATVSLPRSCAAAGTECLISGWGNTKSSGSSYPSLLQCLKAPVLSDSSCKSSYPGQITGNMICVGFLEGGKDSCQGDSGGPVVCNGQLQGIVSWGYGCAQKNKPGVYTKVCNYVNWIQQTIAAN
Paired box protein Pax-8, sequence (Q06710 whole entry): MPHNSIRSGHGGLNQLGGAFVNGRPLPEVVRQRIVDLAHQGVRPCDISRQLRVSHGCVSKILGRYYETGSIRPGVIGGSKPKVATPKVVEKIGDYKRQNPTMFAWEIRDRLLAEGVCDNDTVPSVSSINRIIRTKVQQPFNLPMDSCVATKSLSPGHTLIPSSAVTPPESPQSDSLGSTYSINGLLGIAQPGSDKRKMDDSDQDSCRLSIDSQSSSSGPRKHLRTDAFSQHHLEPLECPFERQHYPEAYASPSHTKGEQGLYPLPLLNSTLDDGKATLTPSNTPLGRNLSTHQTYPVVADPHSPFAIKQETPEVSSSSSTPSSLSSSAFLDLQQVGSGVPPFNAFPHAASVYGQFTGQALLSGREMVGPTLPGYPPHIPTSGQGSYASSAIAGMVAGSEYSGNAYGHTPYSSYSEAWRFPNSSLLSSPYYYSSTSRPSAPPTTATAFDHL

One may read the EC50 as the concentration at which the effect is half-maximal. As for `CCN(Cc1ccccc1)S(=O)(=O)c1ccc(C(=O)N(CCCN(C)C)c2nc3c(F)cccc3s2)cc1`, the EC50 in data set [1] was 2.11 µM (active).

By AC50 is commonly meant the concentration giving half of the maximal activity seen. Take `O=S(=O)(c1ccccc1)c1cnn2c(C(F)(F)F)cc(-c3ccc(F)cc3)nc12`: the AC50 entry in [2] was “inconclusive”; in [4] it was 20.2 µM (active); in data set [6], 3.16 µM (inconclusive). For the same molecule, the EC50 in data set [3], in data set [5] and in [7] was > 79.4 µM (not active) throughout.

A word on the IC50: it is the midpoint of a concentration-inhibition curve. By CC50 is commonly meant the concentration that lowers cell viability or growth by half. With `Cc1ccc(/C=N/NC(=O)C2COc3ccccc3O2)s1` (stereo not drawn), the values for the IC50 in data set [8] and in [9] were > 80 µM (inactive) and 7.88 µM (active), respectively. The values for the CC50 in data set [10] and in data set [11] were 4.18 µM (active) and 8.33 µM (active), respectively.

On to `O=C(Nc1ccc(S(=O)(=O)NC2=NCCCCC2)cc1)c1ccc([N+](=O)[O-])s1`, for which the concentration giving a half-maximal response (EC50) in data set [12] was 8.46 µM (active); in data set [13], 0.201 µM (active). Further, the AC50 in [14] was 5.11 µM (active); in data set [15], 5.3 µM (active).

With `O=C(C1CCCN(Cc2ccccc2)C1)N1CCc2ccccc2C1` (stereo not drawn), the EC50 in data set [1] was 0.133 µM (active).

With `FC(F)(F)c1cc(CCN2CCNC[C@@H]2Cc2ccccc2)cc(C(F)(F)F)c1`, in data set [16], the IC50 was > 20 µM (inactive). Moreover, the AC50 in data set [14] is 12.3 µM (active); in data set [17], 13.3 µM (active).

Turning to `O=C(N/N=C/c1ccc([N+](=O)[O-])s1)C(O)c1ccccc1` (stereo not drawn), the EC50 in [12] was > 60 µM (inconclusive); in data set [18] it was 5.9 µM (active); in data set [19] it was 5.56 µM (active); in data set [13] it was 0.306 µM (active). Moreover, the AC50 is 7.84 µM (active) in data set [20] and 4.48 µM (active) in data set [14].

Take `O=S(=O)(c1ccccc1)c1nnn2c1nc(NC1CCN(Cc3ccccc3)CC1)c1cc(Cl)ccc12`: in [1], the concentration giving a half-maximal response (EC50) is 6.68 µM (active).

Turning to `CCOc1cc(-c2nnc(NC(=O)c3ccco3)o2)cc(OCC)c1OCC`, the IC50 in data set [9] was 5.12 µM (active). In [11], the CC50 is > 20 µM (active).
